Source: PubChem BioAssay (NCI)
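Cultured in 96-well plates, cells were exposed to test compound for 48 hours across five concentrations. GI50 is the concentration that inhibits growth by half. The concentration for full growth arrest is given as TGI.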

What was measured:
Test in all cases: growth of human tumour cells (NCI), 48 h
ACHN renal = system: ACHN renal
CCRF-CEM leukemia = system: CCRF-CEM leukemia
HOP-92 NSCLC = system: HOP-92 NSCLC
HT29 colon = system: HT29 colon
IGROV1 ovarian = system: IGROV1 ovarian
K-562 leukemia = system: K-562 leukemia
M14 melanoma = system: M14 melanoma
SF-295 CNS = system: SF-295 CNS
SF-539 CNS = system: SF-539 CNS
SK-MEL-5 melanoma = system: SK-MEL-5 melanoma

In the case of `Cc1cc(Cl)ccc1Nc1nc(C(F)(F)F)ccc1C(=O)N/N=C/c1ccc([N+](=O)[O-])cc1`, the GI50 (ACHN renal) is reported as 1.08 µM, the TGI (ACHN renal) is reported as 5.14 µM and the GI50 (CCRF-CEM leukemia) is reported as 0.144 µM. It also gave a TGI (CCRF-CEM leukemia) of 0.526 µM, a GI50 (HOP-92 NSCLC) of 1.34 µM and a TGI (HOP-92 NSCLC) of 5.47 µM. For the same compound, the GI50 (HT29 colon) was 3.11 µM, the TGI (HT29 colon) was over 37.5 µM and the GI50 (IGROV1 ovarian) was 2.21 µM. The TGI (IGROV1 ovarian) was 12.9 µM, the GI50 (K-562 leukemia) was 1.43 µM and the TGI (K-562 leukemia) was over 24.8 µM. The GI50 (M14 melanoma) was 2.18 µM, the TGI (M14 melanoma) was 7.96 µM and the GI50 (SF-295 CNS) was 1.55 µM. It also gave a TGI (SF-295 CNS) of 5.71 µM, a GI50 (SF-539 CNS) of 2.65 µM and a TGI (SF-539 CNS) of 14.4 µM. It also gave a GI50 (SK-MEL-5 melanoma) of 1.87 µM and a TGI (SK-MEL-5 melanoma) of 4.08 µM.
In the case of `C=C1C(=O)O[C@H]2[C@H]1CC/C(COC(=O)c1cc3cc(Cl)ccc3[nH]1)=C\CC[C@@]1(C)O[C@@H]21`, the GI50 (ACHN renal) is reported as 1.35 µM, the TGI (ACHN renal) is reported as 2.75 µM and the GI50 (CCRF-CEM leukemia) is reported as 0.394 µM. For the same compound, the TGI (CCRF-CEM leukemia) was 1.61 µM, the GI50 (HOP-92 NSCLC) was 1.25 µM and the TGI (HOP-92 NSCLC) was 2.76 µM. For the same compound, the GI50 (HT29 colon) was 1.33 µM, the TGI (HT29 colon) was 3.12 µM and the GI50 (IGROV1 ovarian) was 1.38 µM. The TGI (IGROV1 ovarian) was 2.91 µM, the GI50 (K-562 leukemia) was 1.14 µM and the TGI (K-562 leukemia) was 4.14 µM. For the same compound, the GI50 (M14 melanoma) was 1.47 µM, the TGI (M14 melanoma) was 3.4 µM and the GI50 (SF-295 CNS) was 3.18 µM. The TGI (SF-295 CNS) was 16.5 µM, the GI50 (SF-539 CNS) was 1.44 µM and the TGI (SF-539 CNS) was 2.92 µM. The GI50 (SK-MEL-5 melanoma) was 1.91 µM and the TGI (SK-MEL-5 melanoma) was 3.54 µM.
`COC(=O)C(CC(=O)Nc1ccc(C)cc1)C(=O)C(=O)Nc1ccccc1C(C)C` (stereo not given) showed a TGI (ACHN renal) of over 100 µM, a TGI (CCRF-CEM leukemia) of over 100 µM and a TGI (HOP-92 NSCLC) of over 100 µM. The TGI (HT29 colon) was over 100 µM, the TGI (IGROV1 ovarian) was over 100 µM and the TGI (K-562 leukemia) was over 100 µM. For the same compound, the TGI (M14 melanoma) was over 100 µM, the TGI (SF-295 CNS) was over 100 µM and the TGI (SF-539 CNS) was over 100 µM. The TGI (SK-MEL-5 melanoma) was over 100 µM.
`Cc1cc2c(cc1C)N(C(=O)CCl)CCN2C(=O)CCl` was tested, and the GI50 (ACHN renal) was 0.638 µM, the TGI (ACHN renal) was 2.08 µM and the GI50 (CCRF-CEM leukemia) was 0.282 µM. It also gave a TGI (CCRF-CEM leukemia) of 0.856 µM, a GI50 (HOP-92 NSCLC) of 1.6 µM and a TGI (HOP-92 NSCLC) of 3.2 µM. For the same compound, the GI50 (HT29 colon) was 0.301 µM, the TGI (HT29 colon) was 0.943 µM and the GI50 (IGROV1 ovarian) was 0.62 µM. The TGI (IGROV1 ovarian) was over 19.9 µM, the GI50 (K-562 leukemia) was 0.378 µM and the TGI (K-562 leukemia) was 2 µM. It also gave a GI50 (M14 melanoma) of 1.08 µM, a TGI (M14 melanoma) of 2.52 µM and a GI50 (SF-295 CNS) of 1.96 µM. For the same compound, the TGI (SF-295 CNS) was 4.13 µM, the GI50 (SF-539 CNS) was 1.65 µM and the TGI (SF-539 CNS) was 3.24 µM. For the same compound, the GI50 (SK-MEL-5 melanoma) was 0.64 µM and the TGI (SK-MEL-5 melanoma) was 1.93 µM.
For `COC(=O)c1nc(Cl)nc(Cl)c1Cl`, the TGI (ACHN renal) was 27.7 µM, the TGI (CCRF-CEM leukemia) was 27.7 µM and the TGI (HOP-92 NSCLC) was 42.9 µM. For the same compound, the TGI (HT29 colon) was 50.2 µM, the TGI (IGROV1 ovarian) was 66 µM and the TGI (K-562 leukemia) was 31.9 µM. For the same compound, the TGI (M14 melanoma) was 38.3 µM, the TGI (SF-295 CNS) was over 100 µM and the TGI (SF-539 CNS) was 75.3 µM. It also gave a TGI (SK-MEL-5 melanoma) of 35.1 µM.
In the case of `CN(C)CC1CCC/C1=N\O` (stereo not given), the TGI (ACHN renal) is reported as over 100 µM, the TGI (CCRF-CEM leukemia) is reported as over 100 µM and the TGI (HOP-92 NSCLC) is reported as over 100 µM. It also gave a TGI (HT29 colon) of over 100 µM, a TGI (IGROV1 ovarian) of over 100 µM and a TGI (K-562 leukemia) of over 100 µM. The TGI (M14 melanoma) was over 100 µM, the TGI (SF-295 CNS) was over 100 µM and the TGI (SF-539 CNS) was over 100 µM. It also gave a TGI (SK-MEL-5 melanoma) of over 100 µM.
`COc1ccccc1/C=C/C(=O)c1ccccc1` showed a GI50 (ACHN renal) of 5.04 µM, a TGI (ACHN renal) of 15.2 µM and a GI50 (CCRF-CEM leukemia) of 2.87 µM. The TGI (CCRF-CEM leukemia) was 11.5 µM, the GI50 (HOP-92 NSCLC) was 6.3 µM and the TGI (HOP-92 NSCLC) was 30.7 µM. It also gave a GI50 (HT29 colon) of 5.73 µM, a TGI (HT29 colon) of 26.9 µM and a GI50 (IGROV1 ovarian) of 2.2 µM. For the same compound, the TGI (IGROV1 ovarian) was 8.7 µM, the GI50 (K-562 leukemia) was 3.41 µM and the TGI (K-562 leukemia) was over 100 µM. For the same compound, the GI50 (M14 melanoma) was 12.2 µM, the TGI (M14 melanoma) was 27 µM and the GI50 (SF-295 CNS) was 14.8 µM. The TGI (SF-295 CNS) was 30.9 µM, the GI50 (SF-539 CNS) was 16.4 µM and the TGI (SF-539 CNS) was 30.8 µM. It also gave a GI50 (SK-MEL-5 melanoma) of 12.7 µM and a TGI (SK-MEL-5 melanoma) of 25.7 µM.
